Assay results published in US20210308101A1, “METHODS OF TREATING FIBROMYALGIA” (Aptinyx Inc., priority 2019, published 2021).

Legend:
[1] = tested on: subjects with fibromyalgia; experiment: Safety evaluation in the fibromyalgia study; format: in vivo, human; conditions: 20 mg then 200 mg PO QD, 2 weeks each
Description: Adverse events (AEs), vital signs, electrocardiograms, physical examinations, Columbia Suicide Rating Scales, and clinical laboratory samples were collected throughout the study.
• Adverse events • Vital sign measurements • Clinical laboratory test results • Electrocardiogram results • Physical examination findings • Columbia-Suicide Severity Rating Scale (C-SSRS)

[2] = tested on: subjects with fibromyalgia; experiment: Brief Pain Inventory - Short Form (BPI-SF); format: in vivo, human; conditions: not statistically significant
Description: As used herein, “Brief Pain Inventory” (BPI)—Short Form is a brief, simple patient-completed numeric rating scale that assesses the severity of pain (Severity scale), its impact on daily functioning (Interference scale), and other aspects of pain (e.g., location of pain, relief from medications). A short form version of the BPI, including the 4-item pain Severity scale (Worst Pain, Least Pain, Average Pain, and Pain Now) and the 7-item pain Interference scale (General Activity, Mood, Walking Ability, Normal Work, Relations with Other People, Sleep, Enjoyment of Life) were the main BPI-Short Form analyses. […] If at least 3 of the 4 Severity items have a reported score, then the Pain Severity Index was the calculated mean. Otherwise, the Pain Severity Index was set to missing. […] Otherwise, the Pain Interference Index was set to missing. […] The Pain Severity Index and the Pain Interference Index were referred to as composite scores.
There may be dates in which worst pain in the last 24 hours has scores that are less than the least pain in the last 24 hours and/or right now pain scores. Also, the least pain in the last 24 hours scores may be greater than the worst pain in the last 24 hours and/or right now pain scores. This may be due to the collection of the data that cannot be changed due to the subject's confusion of the three scores. The Pain Severity Index score equally distributes all these three scores and the average pain score. Therefore, the Pain Severity Index score is not impacted by any of these scores being mixed up. As a result, the scores were analyzed based on the values collected.
The 2 composite scores took on values ranging from 0 to 10 and were rounded off by one number after the decimal point. A total pain score for BPI-Short Form was not calculated. The BPI-Short Form assessment was collected and analyzed at visits Screening, Day 1, Week 2, Week 4, Week 6, and Follow-up (Week 7). The observed composite scores, changes from baseline, and changes from treatment periods were summarized using descriptive statistics. Additionally, the treatment group comparisons were analyzed using the paired t-test and nonparametric Wilcoxon signed-rank test. All BPI-Short Form data collected and the calculated composite scores at each visit were presented in a subject listing. […] Have you had pain other than these everyday kinds of pain today?” is a categorical response (yes/no). […] This question was included in the descriptive statistics, but was not analyzed using any paired t-test and nonparametric Wilcoxon signed-rank test comparisons. • BPI-Short Form question 2, “On the diagram, shade in the areas where you feel pain. […]

NMDAR = NMDAR modulation (description); conditions: low concentrations of endogenous agonist (glycine or D-serine), in the presence of glutamate
[3] = tested on: subjects with fibromyalgia; experiment: Numeric Pain Rating Scale (NPRS) daily pain scores; format: in vivo, human
Protocol: As used herein, “NPRS” is Numeric Pain Rating Scale Score. Numeric pain rating scale is a unidimensional segmented numeric version of the visual analog scale. The NPRS score assessing average pain intensity in the past 24 hours are based on an 11-point numerical rating scale/Likert scale ranging from 0 to 10. Where 0 represents no pain and 10 is the worst pain imaginable. Individual one-time scores were collected at the Screening and Day 1 visits on the CRF in order to confirm eligibility status for the subjects. These CRF pain scores were not used in the analysis tables. Instead, the pain scores collected by eRT via phone data collection were used in the analysis tables. eRT collected a variable if the call was completed per the requirements. […] The daily pain scores were summarized using the mean and were calculated for the analysis visits at Baseline and Weeks 1-7. There needed to be at least 4 daily pain scores collected within a post-baseline analysis visit in order to calculate the mean pain score for that visit. Each mean analysis visit score took on values ranging from 0 to 10 and was rounded off by one number after the decimal point. No missing data imputations were used for these individual values or computed means. The actual values/means, changes from baseline, and changes from treatment periods at each analysis visit were summarized using descriptive statistics. Additionally, the treatment group comparisons were analyzed using the paired t-test and nonparametric Wilcoxon signed-rank test. All data collected and derived were presented in subject listings. The pain scores collected by eRT and the CRF were presented in separate subject listings.
The collection methods of the NPRS score assessing worst pain intensity in the past 24 hours were the same as the efficacy data for the NPRS score assessing average pain intensity in the past 24 hours and was analyzed using the same techniques. The worst pain score must be greater than or equal to the average pain score for each assessment. In the event a worst pain score was less than the average pain, both pain scores were removed from calculating the mean weekly analysis visit scores. These collected pain scores were presented in the subject listings with a note that they would be removed from the analysis tables.
The timeline of events in the study are depicted in FIG. 1A. The study included up to a 30 day screening period, to confirm the diagnosis, assess eligibility, and complete the baseline magnetic resonance imaging (MRI). This was a single-blind, exploratory, placebo-controlled pilot study in which eligible subjects received 2 weeks of daily oral (QD) placebo, 2 weeks of NYX-2925 20 mg PO daily (low dose), 2 weeks of NYX-2925 200 mg PO daily (high dose), followed by a 1 week follow-up period. An MRI was conducted during the screening period, during the last week of the placebo period, during the last week of the NYX-2925 20 mg administration period, and during the last week of the NYX-2925 200 mg administration period. Study visits occurred during screening, then at day one and weeks 1, 2, 3, 4, 5, 6, and 7. An optional MRI was completed at the end of the follow-up period for consenting subjects. Study participants and study staff responsible for interpreting MRI results were blinded to the study drug administration.

[4] = Week 2 (placebo) to Week 4 (NYX-2925 20 mg)
[5] = Week 2 (placebo) to Week 6 (NYX-2925 200 mg)
[6] = week six, after four weeks of NYX-2925, scale 0 to 10, n=19

CC(C)C(=O)N1CCC[C@]12CN([C@H](C(N)=O)[C@@H](C)O)C2=O [NYX-2925, (2S, 3R)-3-hydroxy-2-((R)-5-isobutyryl-1-oxo-2,5-diazaspiro[3.4]octan-2-yl)butanamide]
discontinuations due to treatment-emergent adverse events (TEAE) [1]: no discontinuations | safety and tolerability [1]: safe and well tolerated | serious adverse events [1]: No serious adverse events | BPI-SF Pain Interference Index score, mean change [2, 4]: −0.04 | BPI-SF Pain Severity Index score, mean change [2, 4]: −0.22 | BPI-SF Pain Interference Index score, mean change [2, 5]: −0.66 | BPI-SF Pain Severity Index score, mean change [2, 5]: −0.27 | activity at the NMDAR (NMDAR): partially activates the NMDAR | average daily pain, change from baseline ([3]; NYX-2925 20 mg): reductions from baseline | worse daily pain, change from baseline ([3]; NYX-2925 20 mg): reductions from baseline | NPRS average pain score, mean change ([3]; Week 2 (placebo) to Week 4 (NYX-2925 20 mg PO QD)): −0.10 | NPRS average pain score, mean change ([3]; Week 2 (placebo) to Week 6 (NYX-2925 200 mg PO QD), p=0.0072): −0.66 | NPRS worst pain score, mean change ([3]; Week 2 (placebo) to Week 6 (NYX-2925 200 mg), p=0.0360): −0.61 | Average daily pain score, reduction from baseline [3, 6]: 1.1 point | Worst daily pain score, reduction from baseline [3, 6]: 1.0 point
